Article PMC8238948, “Potent inhibitors of toxic alpha-synuclein identified via cellular time-resolved FRET biosensors” (NPJ Parkinson's Disease, 2021)
“Also recorded” adds a separate entry of the source. Counter-ions that a name gives are not always drawn.

Columns and labels:
[1] = target: T1, αSN (15 μM monomeric αSN doped with 5% αSN PFF seeds) (Homo sapiens, UniProt P37840); experiment: Seeded Thioflavin-T aggregation assay; type: biochemical; conditions: 15 μM αSN monomer + 5% PFF; for IC50: 37 °C, max ThT intensity
T1 construct: made in house; host or cells: Escherichia coli BL21(DE3), T7-7 plasmid
Experimental: Figure 11 and Supplementary Fig. 23 present results from a dose-response-seeded aggregation assay. Vehicle, control, and hit compounds were incubated with 15 µM αSN(m), doped with 5% freshly sonicated αSN PFF in PBS under mild agitation (Supplementary Fig. 23a). […] Titration of control and hit compounds were run in triplicate; representative traces of hit compounds are illustrated in Fig. 11a with a full summary of each titration detailed in Supplementary Fig. 23c–h. IC50 was determined for each compound by determining the max ThT intensity for each concentration (Fig. 11b).
Seeded ThT aggregation assay was performed using 15 μM monomeric αSN doped with 5% (0.75 μM sonicated αSN pre-formed fibril (PFF) seeds) in a 384-well plate under slow agitation (300 RPM) at 37 °C. a Control samples for the aggregation include PBS (black), αSN monomer (brown), 5% αSN PFF (red), and the 15 μM monomer+5% PFF mixture (orange). Dose-response curves were made with a titration of compounds. […] In contrast, RO and DEM both show potent effects relative to Baicalin and EGCG controls. BAY does have some response, but it lags behind other hit compounds. b Normalizing the initial peak in ThT data allows us to estimate an IC50 for each hit. […] Although there is a small trend with BAY, the data cannot be fit to resolve an IC50.
ThT (Sigma, product no. T3516) was dissolved in PBS buffer and was filtered through a 0.2-µm syringe filter to make a stock solution of 2.5 mM. Working ThT concentration was 20 µM. PFF seeds were produced via constant agitation of 1000 RPM at 37 °C (ThermoMixer-C, Eppendorf, Hauppauge, NY) of 500 µL of 350 µM αSN in PBS in a 2 mL tube for 5 days. PFFs were aliquoted and flash frozen and stored at −80 °C until further use. PFF seeds were rapidly thawed, diluted to 35 µM in PBS, and sonicated 120 pulses at 50% using a probe-tip sonicator following the established protocols. Master mix samples for each of the different ThT assays were prepared and dispensed in triplicate as 50 µL in 384-well flat, black-bottom polypropylene plates (PN 781209, Greiner Bio-One) and sealed with fluorescently transparent film. Conditions for non-seeded, seeded, and cell homogenate assays varied slightly.
Seeded ThT experiments were performed at a lower monomer concentration to preclude spontaneous αSN aggregation during the time course of the experiment. For both seeded and cell homogenate experiments, sample were prepared in PBS + 20 µM ThT with or without 15 µM αSN(m) +/− 5% PFF (0.75 µM). Additional control samples of 15 µM PFF and 0.75 µM PFF were also prepared. All empty wells were filled with PBS for a thermal sink and to help prevent evaporation. Assay plates were prepared as pre-cellular FRET dose response above. Dose response was done across 8 concentrations (10 nM to 50 µM). The assay was run at 37 °C with mild shaking (200 RPM) in a Cytation3 plate reader. The ThT fluorescence was monitored with excitation filter of 450 nm and emission filter of 490 nm. Readings were acquired every 20 min for a minimum of 24 h. Seeded ThT aggregation IC50 values were determined by first normalizing all ThT curves to the maximal signal at plateau for the αSN + 5% PFF + DMSO samples. The normalized fluorescence at each concentration was fit to the Hill equation to resolve an effective IC50 of seeded aggregation inhibition.

[2] = system: differentiated SH-SY5Y cells treated with sonicated human αSN PFF; experiment: Differentiated SH-SY5Y cell model of αSN PFF pathology (pS129 immunoblot); type: cell-based; conditions: 1 μM compound, 200 nM human PFF, 48 h; for total pS129 signal (words): relative to DMSO
Experimental: SH-SY5Y cells were differentiated using reduced serum (3%) media supplemented with 10 μM retinoic acid for 3 days and then changed to serum-free media supplemented with 10 ng/mL brain-derived neurotrophic factor for the remainder of the experiment. Stock αSN PFFs were diluted and sonicated as described previously. SH-SY5Y cultures were then treated with 200 nM PFF and PBS, DMSO, 1 μM drug compound (RO, BAY, or DEM), or 50 μM Baicalin. After 48 h, SH-SY5Y were washed with PBS and harvested in cold lysis buffer with protease and phosphatase inhibitors, as previously described. Approximately 15 μg of total protein was loaded onto a 4–20% Criterion TGX midi gel and probed using Syn1 (BD Biosciences, #610787; 1° 1:5000; 2° 1:10K) and pS^129 aSyn (abcam, ab59264; 1° 1:1000; 2° 1:5000) and a-tubulin (abcam, ab4074; 1° 1:1000; 2° 1:10K) page 19: Supplemental Figure 18. […] Differentiated SH-SY5Y cells were treated with PBS, vehicle (DMSO) or compounds with and without 200nM sonicated human αSN PFFs. […] These will be removed in subsequent densitometry analysis. (b) Replicates of PFF +/- compound treatment were ran for immunoblot analysis of pS129 immunoreactivity. (c) Densitometry analysis was performed using ImageLab from BioRad. Total pS129 signal (excluding the non- specific bands) was normalized to tubulin loading control. […] Quantification is normalized per lane to highlight change in the ratio of different species. Note, oligomers quantification is plotted relative to the right-y- axis. All statistical comparisons were to DMSO treatment using two-tailed t-test with * p<0.05; ** p<0.01; *** p<0.005.

[3] = target: T2, WT αSN oligomer (inter-protomeric) FRET biosensor in HEK293 cells (Homo sapiens, UniProt P37840); experiment: FLT dose response, WT oligomer (inter-protomeric) FRET biosensor; type: cell-based; conditions: 1 nM to 50 μM
T2 construct: In addition to full-length αSN fusion constructs, we observe both C-terminally and N-terminally truncated αSN species; expressed in transfected cells; host or cells: HEK293
Experimental: Hits from the pilot HTS of the LOPAC library were selected and dispensed into 384-well plates to verify reproducible and specific FLT trends using the WT and A53T oligomer (inter-protomeric) FRET biosensors. Figure 6 presents a subset of these dose-response curves for hit compounds RO, BAY, SB206553, and DEM, along with known control compound EGCG. […] Assay quality was determined by Z′ (Eq. 2) where a Z′ > 0.5 indicates good assay quality. Using EGCG as control compound and the hit DEM, we calculated Z′ value of 0.76 and 0.66, respectively, indicating excellent assay quality.
Fig. 6 FRET dose response of pilot HTS hits. A subset of hits were evaluated using both WT (a) and A53T (b) oligomer biosensor to verify both increased FLT (disrupting αSN–αSN interactions) and decreased FLT (tighter aggregation or remodeled oligomers).
Compounds were tested in a FLT dose-response assay. The compound was dissolved to 10 mM in DMSO, then serially diluted in 96-well mother plates. Each hit was re-screened for FLT dose response across eight concentrations (1 nM to 50 μM). Compounds (0.5 μL) were transferred from mother plates into assay plates using a Mosquito HV liquid handler (TTP Labtech Ltd, UK). The preparations for αSN FRET biosensors were carried out as above.

| effect on seeded aggregation ([1]; titration up to 50 μM) | FLT trend in dose response [3] | IC50 [1] [nM] | SMILES | HMW pS129 assemblies [2] | LMW oligomer pS129 fraction [2] | monomeric pS129 fraction [2] | total pS129 signal (words) [2] | total pS129 signal (words) ([2]; listed as Bay) |
| --- | --- | --- | --- | --- | --- | --- | --- | --- |
| cannot be fit | reduced FLT |  | COC(=O)C1=C(C)NC(C)=C([N+](=O)[O-])C1c1ccccc1C(F)(F)F (racemic) [BAY, (±)-Bay K 8644] | increase HMW assemblies | not BAY, reduce oligomers | significant reduction | significant increase | increased pS129 signal |
|  | reduced FLT | 1000 | CN(C)[C@@H]1C(O)=C(C(N)=O)C(=O)[C@@]2(O)C(O)=C3C(=O)c4c(O)ccc(Cl)c4[C@@H](O)[C@H]3C[C@@H]12 [DEM, Demeclocycline HCl] | increase HMW assemblies | significantly reduced | significant reduction | non-significant change |  |
|  | reduced FLT | 931 | Nc1ccc(-c2nc3ccc(-c4nc5ccc(N)cc5[nH]4)cc3[nH]2)cc1 [RO, Ro 90–7501] | increase HMW assemblies | significantly reduced | significant reduction | significant reduction; also recorded: significant decrease |  |
